Experimental data as given in ChEMBL document CHEMBL5523722, “Design, Synthesis, and Activity Evaluation of Novel Benzazole Bifunctional Antifungal Inhibitors with an LDH Carrier” (J Med Chem, 2024).
In brackets after ≈: the same amount, converted by molar mass.

Assays:
Candida albicans [1] = assay: microbe, parasite or virus in culture; conditions: ATCC SC5314, 64 h
Description: Antifungal activity against Candida albicans ATCC SC5314 assessed as inhibition of fungal growth incubated for 64 hrs by liquid medium dilution method

Nakaseomyces glabratus = assay: microbe, parasite or virus in culture; conditions: 64 h
Description: Antifungal activity against Candida glabrata assessed as inhibition of fungal growth incubated for 64 hrs by liquid medium dilution method

Candida tropicalis = assay: microbe, parasite or virus in culture; conditions: ATCC 1369, 64 h
Description: Antifungal activity against Candida tropicalis ATCC 1369 assessed as inhibition of fungal growth incubated for 64 hrs by liquid medium dilution method

Cryptococcus neoformans = assay: microbe, parasite or virus in culture; conditions: ZKCC 2209, 64 h
Description: Antifungal activity against Cryptococcus neoformans ZKCC 2209 assessed as inhibition of fungal growth incubated for 64 hrs by liquid medium dilution method

Aspergillus fumigatus = assay: microbe, parasite or virus in culture; conditions: KM8001, 64 h
Description: Antifungal activity against Aspergillus fumigatus KM8001 assessed as inhibition of fungal growth incubated for 64 hrs by liquid medium dilution method

[2] = molecular target: Lanosterol 14-alpha demethylase (Candida albicans (strain SC5314 / ATCC MYA-2876) (Yeast), UniProt P10613)
Sequence of Lanosterol 14-alpha demethylase (P10613 whole entry): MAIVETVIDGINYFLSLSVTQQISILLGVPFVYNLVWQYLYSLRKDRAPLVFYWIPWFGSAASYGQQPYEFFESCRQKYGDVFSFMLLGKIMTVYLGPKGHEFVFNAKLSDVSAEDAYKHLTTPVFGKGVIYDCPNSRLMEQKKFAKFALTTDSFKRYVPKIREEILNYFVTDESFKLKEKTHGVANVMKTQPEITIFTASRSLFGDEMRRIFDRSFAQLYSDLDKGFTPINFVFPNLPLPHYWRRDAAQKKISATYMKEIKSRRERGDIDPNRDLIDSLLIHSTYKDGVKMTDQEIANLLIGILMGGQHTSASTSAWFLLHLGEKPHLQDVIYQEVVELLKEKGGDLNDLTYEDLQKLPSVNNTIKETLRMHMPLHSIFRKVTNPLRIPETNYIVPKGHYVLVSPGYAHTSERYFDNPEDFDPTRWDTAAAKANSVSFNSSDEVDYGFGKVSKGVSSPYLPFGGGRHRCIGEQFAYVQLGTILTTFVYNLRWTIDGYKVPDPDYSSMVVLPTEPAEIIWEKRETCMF
Description: Inhibition of candida albicans CYP51 14alpha demethylase activity incubated for 30 mins by HPLC analysis

Candida albicans [3] = assay: microbe, parasite or virus in culture; conditions: CaR, 64 h
Description: Antifungal activity against fluconazole-resistant Candida albicans CaR assessed as inhibition of fungal growth incubated for 64 hrs by liquid medium dilution method

Candida albicans [4] = assay: microbe, parasite or virus in culture; conditions: 17#, 64 h
Description: Antifungal activity against fluconazole-resistant Candida albicans 17# assessed as inhibition of fungal growth incubated for 64 hrs by liquid medium dilution method

Candida albicans [5] = assay: microbe, parasite or virus in culture; conditions: Candida albicans, 632, 64 h
Description: Antifungal activity against fluconazole-resistant Candida albicans 632 assessed as inhibition of fungal growth incubated for 64 hrs by liquid medium dilution method

Candida albicans [6] = assay: microbe, parasite or virus in culture; conditions: Candida albicans, 901, 64 h
Description: Antifungal activity against fluconazole-resistant Candida albicans 901 assessed as inhibition of fungal growth incubated for 64 hrs by liquid medium dilution method

Candida albicans [7] = assay: microbe, parasite or virus in culture; conditions: Candida albicans, 904, 64 h
Description: Antifungal activity against fluconazole-resistant Candida albicans 904 assessed as inhibition of fungal growth incubated for 64 hrs by liquid medium dilution method

## Cc1c(CN2CCCC(C(=O)NCC(Cc3ccccc3)Cn3cncn3)C2)cccc1-c1ccccc1 (centres undefined)
Candida albicans [1]
  MIC50: 0.25 µg/mL (≈ 0.492 µM)
Nakaseomyces glabratus
  MIC50: 0.5 µg/mL (≈ 0.985 µM)
Candida tropicalis
  MIC50: 0.5 µg/mL (≈ 0.985 µM)
Cryptococcus neoformans
  MIC50: ≥ 8 µg/mL
Aspergillus fumigatus
  MIC50: ≥ 8 µg/mL

## O=C(NCC(Cc1ccccc1)Cn1cncn1)C1CCCN(Cc2ccc(-c3ccccc3)cc2)C1 (centres undefined)
Candida albicans [1]
  MIC50: 0.5 µg/mL (≈ 1.01 µM)
Nakaseomyces glabratus
  MIC50: 2 µg/mL (≈ 4.05 µM)
Candida tropicalis
  MIC50: 1 µg/mL (≈ 2.03 µM)
Cryptococcus neoformans
  MIC50: 2 µg/mL (≈ 4.05 µM)
Aspergillus fumigatus
  MIC50: 4 µg/mL (≈ 8.1 µM)

## Cc1c(CN2CCC(CNCC(O)(Cn3cncn3)c3ccc(Cl)cc3Cl)CC2)cccc1-c1ccccc1 (centres undefined)
Candida albicans [1]
  MIC50: 2 µg/mL (≈ 3.54 µM)
Nakaseomyces glabratus
  MIC50: 1 µg/mL (≈ 1.77 µM)
Candida tropicalis
  MIC50: 2 µg/mL (≈ 3.54 µM)
Cryptococcus neoformans
  MIC50: 2 µg/mL (≈ 3.54 µM)
Aspergillus fumigatus
  MIC50: ≥ 8 µg/mL

## Cc1c(CN2CCCC(C(=O)NCC(Cc3ccccc3)Cn3ccnc3)C2)cccc1-c1ccccc1 (centres undefined)
Candida albicans [1]
  MIC50: 0.5 µg/mL (≈ 0.987 µM)
Nakaseomyces glabratus
  MIC50: 2 µg/mL (≈ 3.95 µM)
Candida tropicalis
  MIC50: 1 µg/mL (≈ 1.97 µM)
Cryptococcus neoformans
  MIC50: 2 µg/mL (≈ 3.95 µM)
Aspergillus fumigatus
  MIC50: 4 µg/mL (≈ 7.89 µM)

## Cc1c(CN2CCCC(C(=O)NCC(O)(Cn3ccnc3)c3ccc(Cl)cc3Cl)C2)cccc1-c1ccccc1 (centres undefined)
Candida albicans [1]
  MIC50: 0.5 µg/mL (≈ 0.866 µM)
Nakaseomyces glabratus
  MIC50: 1 µg/mL (≈ 1.73 µM)
Candida tropicalis
  MIC50: 0.5 µg/mL (≈ 0.866 µM)
Cryptococcus neoformans
  MIC50: ≥ 8 µg/mL
Aspergillus fumigatus
  MIC50: ≥ 8 µg/mL

## Cc1c(CN2CCCC(C(=O)NCC(O)(Cn3ccnc3)c3ccc(Cl)cc3)C2)cccc1-c1ccccc1 (centres undefined)
Candida albicans [1]
  MIC50: 1 µg/mL (≈ 1.84 µM)
Nakaseomyces glabratus
  MIC50: 1 µg/mL (≈ 1.84 µM)
Candida tropicalis
  MIC50: 2 µg/mL (≈ 3.68 µM)
Cryptococcus neoformans
  MIC50: 4 µg/mL (≈ 7.36 µM)
Aspergillus fumigatus
  MIC50: ≥ 8 µg/mL

## Cc1c(CN2CCC(NCC(O)(Cn3ccnc3)c3ccc(Cl)cc3)CC2)cccc1-c1ccccc1 (centres undefined)
Candida albicans [1]
  MIC50: 0.25 µg/mL (≈ 0.485 µM)
Nakaseomyces glabratus
  MIC50: 1 µg/mL (≈ 1.94 µM)
Candida tropicalis
  MIC50: 0.5 µg/mL (≈ 0.971 µM)
Cryptococcus neoformans
  MIC50: 2 µg/mL (≈ 3.88 µM)
Aspergillus fumigatus
  MIC50: 4 µg/mL (≈ 7.77 µM)

## Cc1c(CN2CCC(NCC(O)(Cn3ccnc3)c3ccc(Cl)cc3Cl)CC2)cccc1-c1ccccc1 (centres undefined)
[2]
  IC50: 157 nM
Candida albicans [1]
  MIC50: 0.125 µg/mL (≈ 0.227 µM)
Nakaseomyces glabratus
  MIC50: 0.5 µg/mL (≈ 0.91 µM)
Candida tropicalis
  MIC50: 0.5 µg/mL (≈ 0.91 µM)
Cryptococcus neoformans
  MIC50: 1 µg/mL (≈ 1.82 µM)
Aspergillus fumigatus
  MIC50: 4 µg/mL (≈ 7.28 µM)
Candida albicans [3]
  MIC50: 4 µg/mL (≈ 7.28 µM)
Candida albicans [4]
  MIC50: 2 µg/mL (≈ 3.64 µM)
Candida albicans [5]
  MIC50: 2 µg/mL (≈ 3.64 µM)
Candida albicans [6]
  MIC50: 4 µg/mL (≈ 7.28 µM)
Candida albicans [7]
  MIC50: 2 µg/mL (≈ 3.64 µM)

## Cc1c(CN2CCC(CNCC(O)(Cn3ccnc3)c3ccc(Cl)cc3)CC2)cccc1-c1ccccc1 (centres undefined)
Candida albicans [1]
  MIC50: 1 µg/mL (≈ 1.89 µM)
Nakaseomyces glabratus
  MIC50: 0.5 µg/mL (≈ 0.945 µM)
Candida tropicalis
  MIC50: 1 µg/mL (≈ 1.89 µM)
Cryptococcus neoformans
  MIC50: 2 µg/mL (≈ 3.78 µM)
Aspergillus fumigatus
  MIC50: ≥ 8 µg/mL

## O=C(NCC(Cc1ccccc1)Cn1ccnc1)C1CCCN(Cc2ccc(-c3ccccc3)cc2)C1 (centres undefined)
Candida albicans [1]
  MIC50: 1 µg/mL (≈ 2.03 µM)
Nakaseomyces glabratus
  MIC50: 0.5 µg/mL (≈ 1.01 µM)
Candida tropicalis
  MIC50: 2 µg/mL (≈ 4.06 µM)
Cryptococcus neoformans
  MIC50: 4 µg/mL (≈ 8.12 µM)
Aspergillus fumigatus
  MIC50: ≥ 8 µg/mL

## Cc1c(CN2CCC(NCC(O)(Cn3cncn3)c3ccc(Cl)cc3)CC2)cccc1-c1ccccc1 (centres undefined)
[2]
  IC50: 113 nM
Candida albicans [1]
  MIC50: 0.25 µg/mL (≈ 0.484 µM)
Nakaseomyces glabratus
  MIC50: 0.25 µg/mL (≈ 0.484 µM)
Candida tropicalis
  MIC50: 0.25 µg/mL (≈ 0.484 µM)
Cryptococcus neoformans
  MIC50: 0.5 µg/mL (≈ 0.969 µM)
Aspergillus fumigatus
  MIC50: 2 µg/mL (≈ 3.88 µM)
Candida albicans [3]
  MIC50: 2 µg/mL (≈ 3.88 µM)
Candida albicans [4]
  MIC50: 1 µg/mL (≈ 1.94 µM)
Candida albicans [5]
  MIC50: 1 µg/mL (≈ 1.94 µM)
Candida albicans [6]
  MIC50: 2 µg/mL (≈ 3.88 µM)
Candida albicans [7]
  MIC50: 2 µg/mL (≈ 3.88 µM)

## Cc1c(CN2CCC(NCC(O)(Cn3cncn3)c3ccc(Cl)cc3Cl)CC2)cccc1-c1ccccc1 (centres undefined)
Candida albicans [1]
  MIC50: 0.5 µg/mL (≈ 0.908 µM)
Nakaseomyces glabratus
  MIC50: 1 µg/mL (≈ 1.82 µM)
Candida tropicalis
  MIC50: 2 µg/mL (≈ 3.63 µM)
Cryptococcus neoformans
  MIC50: 2 µg/mL (≈ 3.63 µM)
Aspergillus fumigatus
  MIC50: 4 µg/mL (≈ 7.27 µM)

## Cc1c(CN2CCC(CNCC(O)(Cn3cncn3)c3ccc(Cl)cc3)CC2)cccc1-c1ccccc1 (centres undefined)
Candida albicans [1]
  MIC50: 0.5 µg/mL (≈ 0.943 µM)
Nakaseomyces glabratus
  MIC50: 1 µg/mL (≈ 1.89 µM)
Candida tropicalis
  MIC50: 0.5 µg/mL (≈ 0.943 µM)
Cryptococcus neoformans
  MIC50: 4 µg/mL (≈ 7.55 µM)
Aspergillus fumigatus
  MIC50: ≥ 8 µg/mL

## Cc1c(CN2CCCC(C(=O)NCC(O)(Cn3cncn3)c3ccc(Cl)cc3)C2)cccc1-c1ccccc1 (centres undefined)
[2]
  IC50: 256 nM
Candida albicans [1]
  MIC50: 0.25 µg/mL (≈ 0.459 µM)
Nakaseomyces glabratus
  MIC50: 0.5 µg/mL (≈ 0.919 µM)
Candida tropicalis
  MIC50: 0.25 µg/mL (≈ 0.459 µM)
Cryptococcus neoformans
  MIC50: 1 µg/mL (≈ 1.84 µM)
Aspergillus fumigatus
  MIC50: 4 µg/mL (≈ 7.35 µM)
Candida albicans [3]
  MIC50: ≥ 8 µg/mL
Candida albicans [4]
  MIC50: 2 µg/mL (≈ 3.68 µM)
Candida albicans [5]
  MIC50: 4 µg/mL (≈ 7.35 µM)
Candida albicans [6]
  MIC50: ≥ 8 µg/mL
Candida albicans [7]
  MIC50: 4 µg/mL (≈ 7.35 µM)

## Cc1c(CN2CCCC(C(=O)NCC(O)(Cn3cncn3)c3ccc(Cl)cc3Cl)C2)cccc1-c1ccccc1 (centres undefined)
Candida albicans [1]
  MIC50: 0.5 µg/mL (≈ 0.864 µM)
Nakaseomyces glabratus
  MIC50: 0.5 µg/mL (≈ 0.864 µM)
Candida tropicalis
  MIC50: 2 µg/mL (≈ 3.46 µM)
Cryptococcus neoformans
  MIC50: 4 µg/mL (≈ 6.91 µM)
Aspergillus fumigatus
  MIC50: ≥ 8 µg/mL

## Cc1c(CN2CCC(CNCC(O)(Cn3ccnc3)c3ccc(Cl)cc3Cl)CC2)cccc1-c1ccccc1 (centres undefined)
Candida albicans [1]
  MIC50: 1 µg/mL (≈ 1.77 µM)
Nakaseomyces glabratus
  MIC50: 0.5 µg/mL (≈ 0.887 µM)
Candida tropicalis
  MIC50: 2 µg/mL (≈ 3.55 µM)
Cryptococcus neoformans
  MIC50: 4 µg/mL (≈ 7.1 µM)
Aspergillus fumigatus
  MIC50: 4 µg/mL (≈ 7.1 µM)

## OC(Cn1cncn1)(Cn1cncn1)c1ccc(F)cc1F [FLUCONAZOLE]
[2]
  IC50: 98 nM
Candida albicans [1]
  MIC50: 0.5 µg/mL (≈ 1.63 µM)
Nakaseomyces glabratus
  MIC50: 0.5 µg/mL (≈ 1.63 µM)
Candida tropicalis
  MIC50: 0.5 µg/mL (≈ 1.63 µM)
Cryptococcus neoformans
  MIC50: 2 µg/mL (≈ 6.53 µM)
Aspergillus fumigatus
  MIC50: ≥ 8 µg/mL
Candida albicans [3]
  MIC50: ≥ 8 µg/mL
Candida albicans [4]
  MIC50: ≥ 8 µg/mL
Candida albicans [5]
  MIC50: ≥ 8 µg/mL
Candida albicans [6]
  MIC50: ≥ 8 µg/mL
Candida albicans [7]
  MIC50: ≥ 8 µg/mL

## CC(=O)N1CCN(c2ccc(OCC3COC(Cn4ccnc4)(c4ccc(Cl)cc4Cl)O3)cc2)CC1 (centres undefined) [KETOCONAZOLE]
Candida albicans [1]
  MIC50: 0.25 µg/mL (≈ 0.47 µM)
Nakaseomyces glabratus
  MIC50: 0.5 µg/mL (≈ 0.941 µM)
Candida tropicalis
  MIC50: 0.25 µg/mL (≈ 0.47 µM)
Cryptococcus neoformans
  MIC50: 1 µg/mL (≈ 1.88 µM)
Aspergillus fumigatus
  MIC50: 4 µg/mL (≈ 7.53 µM)
Candida albicans [3]
  MIC50: 4 µg/mL (≈ 7.53 µM)
Candida albicans [4]
  MIC50: 2 µg/mL (≈ 3.76 µM)
Candida albicans [5]
  MIC50: ≥ 8 µg/mL
Candida albicans [6]
  MIC50: 4 µg/mL (≈ 7.53 µM)
Candida albicans [7]
  MIC50: ≥ 8 µg/mL
